# Laboratory results: patent US20250197864A1, “LNCRNA TRANSCRIPTS IN MELANOMAGENESIS” (The Regents of the University of California, priority 2021, published 2025)
# Test system: gene expression in D04 melanoma cells
# Assay: RNA-Seq differential expression analysis (DESeq2)
# Type: cell-based, human
# Settings: up-regulated list
# Description: Total RNA was isolated using the RNeasy mini Kit (QIAGEN) following the manufacturer's protocol. Quality check for extracted RNA was done using 2100 Bioanalyzer (Agilent Technologies, USA) or Tapestation System (Agilent Technologies, USA). […] For samples used for identification of MAPK-responsive lncRNAs, paired-end, 101-bp sequencing was performed by Centrillion Genomic Services (Centrillion Biosciences, USA) on an Illumina HiSeq 2000. For DE gene analysis of ASO-transfected D04 samples, paired-end, 2×150-bp sequencing was performed by Genewiz (USA) on a Illumina HiSeq.
# Sequence reads were aligned to the human genome (hg19) using TopHat (Version 2.0.11).
# Differential expression (DE) analysis was done using DESeq2. Differentially expressed genes were defined by more than 1.5-fold changes (log 2 >0.58 or <−0.58) in expression with FDR<0.05. GO term analysis was done using DAVID Functional Annotation Clustering analysis.
# To examine the biomolecular changes upon TRASH-inhibition in melanoma, D04 cells were treated with TRASH-ASOs (SEQ ID NO:15) and Control-ASOs and RNA was extracted and used for RNA-Seq. […] These GO terms consisted of genes encoding growth factors, tyrosine kinases, G protein coupled receptor subunits, and collagen subunits. Scatter plot diagram showing differential gene expression after TRASH-ASO treatment compared to Control-ASO treatment. (cut-off for significance was adjusted p-value <0.05). Data was obtained from RNA-Seq of D04 melanoma cells, treatment period was three days. (FIG. 5c)
sequence,measurement,setting,value
"GACTGGAGATAATTAA (gapmer, pattern not given here) [SEQ ID NO: 15, GapmeR ASO targeting AC004540.4 (TRASH), exon region of both isoforms; used for in vitro experiments]",log2FoldChange BBC3,ENSG00000105327,0.619
same,log2FoldChange CD33,ENSG00000105383,0.929
same,log2FoldChange PLA2G4C,ENSG00000105499,0.608
same,log2FoldChange HBP1,ENSG00000105856,0.6116
same,log2FoldChange ATP6V0A4,ENSG00000105929,0.8207
same,log2FoldChange CPED1,ENSG00000106034,0.7035
same,log2FoldChange SERPINE1,ENSG00000106366,0.6383
same,log2FoldChange ABI3,ENSG00000108798,0.9913
same,log2FoldChange SLC16A6,ENSG00000108932,0.91
same,log2FoldChange LPXN,ENSG00000110031,0.7633
same,log2FoldChange ATG2A,ENSG00000110046,0.5858
same,log2FoldChange CHKA,ENSG00000110721,0.7402
same,log2FoldChange RASAL1,ENSG00000111344,0.896
same,log2FoldChange RBM24,ENSG00000112183,0.8237
same,log2FoldChange TREML2,ENSG00000112195,1.205
same,log2FoldChange WWC1,ENSG00000113645,0.6261
same,log2FoldChange STC2,ENSG00000113739,0.7339
same,log2FoldChange TNNC1,ENSG00000114854,1.043
same,log2FoldChange IL1A,ENSG00000115008,0.7632
same,log2FoldChange ACTL8,ENSG00000117148,1.133
same,log2FoldChange TSPAN1,ENSG00000117472,0.7518
same,log2FoldChange IRF6,ENSG00000117595,0.7078
same,log2FoldChange DIEXF,ENSG00000117597,0.6611
same,log2FoldChange MUC5B,ENSG00000117983,0.599
same,log2FoldChange NR4A3,ENSG00000119508,1.046
same,log2FoldChange GPR75,ENSG00000119737,0.8604
same,log2FoldChange AVPI1,ENSG00000119986,0.7469
same,log2FoldChange DUSP1,ENSG00000120129,1.094
same,log2FoldChange FABP3,ENSG00000121769,0.9724
same,log2FoldChange CCRL2,ENSG00000121797,1.162
same,log2FoldChange PAEP,ENSG00000122133,0.8405
same,log2FoldChange PLAU,ENSG00000122861,1.118
same,log2FoldChange SLC25A16,ENSG00000122912,0.8143
same,log2FoldChange KCNK15,ENSG00000124249,1.203
same,log2FoldChange PAIP2B,ENSG00000124374,1.015
same,log2FoldChange MT1G,ENSG00000125144,1.136
same,log2FoldChange MT2A,ENSG00000125148,0.8492
same,log2FoldChange BMP4,ENSG00000125378,0.657
same,log2FoldChange IL1B,ENSG00000125538,1.059
same,log2FoldChange PSD4,ENSG00000125637,0.7899
same,log2FoldChange ARMCX1,ENSG00000126947,0.5964
same,log2FoldChange BEST3,ENSG00000127325,1.14
same,log2FoldChange KLF2,ENSG00000127528,0.7602
same,log2FoldChange AKAP9,ENSG00000127914,0.609
same,log2FoldChange KRT17,ENSG00000128422,1.116
same,log2FoldChange VGF,ENSG00000128564,0.9691
same,log2FoldChange CSRP3,ENSG00000129170,1.122
same,log2FoldChange AJUBA,ENSG00000129474,0.6241
same,log2FoldChange CDH15,ENSG00000129910,0.8921
same,log2FoldChange SYT5,ENSG00000129990,1.139
same,log2FoldChange UNC13A,ENSG00000130477,1.071
same,log2FoldChange ULBP3,ENSG00000131019,0.6552
same,log2FoldChange ZBED3,ENSG00000132846,0.778
same,log2FoldChange BEX2,ENSG00000133134,0.7157
same,log2FoldChange BEX1,ENSG00000133169,0.6316
same,log2FoldChange BTG1,ENSG00000133639,0.69
same,log2FoldChange DYDC2,ENSG00000133665,0.987
same,log2FoldChange TRPM1,ENSG00000134160,1.155
same,log2FoldChange PTPN22,ENSG00000134242,1.051
same,log2FoldChange FST,ENSG00000134363,0.8947
same,log2FoldChange SLC37A2,ENSG00000134955,0.7294
same,log2FoldChange NT5E,ENSG00000135318,0.6889
same,log2FoldChange RDH5,ENSG00000135437,0.8676
same,log2FoldChange PKIB,ENSG00000135549,0.7917
same,log2FoldChange DYSF,ENSG00000135636,0.9396
same,log2FoldChange LCP1,ENSG00000136167,1.021
same,log2FoldChange IL6,ENSG00000136244,0.8209
same,log2FoldChange MYC,ENSG00000136997,0.6121
same,log2FoldChange RNF144B,ENSG00000137393,1.04
same,log2FoldChange ARHGAP29,ENSG00000137962,0.6178
same,log2FoldChange AOX1,ENSG00000138356,1.099
same,log2FoldChange FGF5,ENSG00000138675,0.9785
same,log2FoldChange ANXA3,ENSG00000138772,0.8166
same,log2FoldChange SLC46A3,ENSG00000139508,0.6816
same,log2FoldChange CYP11A1,ENSG00000140459,0.9698
same,log2FoldChange RHCG,ENSG00000140519,1.166
same,log2FoldChange ITGAX,ENSG00000140678,0.7501
same,log2FoldChange MAP1LC3B,ENSG00000140941,0.7968
same,log2FoldChange NPC1,ENSG00000141458,0.6586
same,log2FoldChange SLC14A1,ENSG00000141469,1.217
same,log2FoldChange NECTIN4,ENSG00000143217,1.206
same,log2FoldChange ABL2,ENSG00000143322,0.8447
same,log2FoldChange RORC,ENSG00000143365,0.8825
same,log2FoldChange TUFT1,ENSG00000143367,0.8984
same,log2FoldChange DYRK3,ENSG00000143479,0.5876
same,log2FoldChange DUSP10,ENSG00000143507,0.6264
same,log2FoldChange SLC20A1,ENSG00000144136,0.585
